Laboratory results taken from patent US20240199572A1, “COMPOUNDS, COMPOSITIONS, AND METHODS FOR TREATING TYPE 2 DIABETES AND DEMENTIA” (THE BOARD OF TRUSTEES OF THE UNIVERSITY OF ILLINOIS, priority 2021, published 2024).

How the values were obtained:
ABCA1 [1] = test: ABCA1 firefly reporter assay in CCF-001 cells; type: cell-based; details: ABCA1 firefly reporter assay in CCF-001 cells (Table 8)
J774 cells [2] = test: Lipopolysaccharide-stimulated J774 cells, TNFα and NOS2; type: cell-based; details: co-treatment
Source text: (§1) qRT-PCR. For cell samples, treated cells were lysed with RLT plus lysis buffer (Qiagen). RNA was isolated with Qiagen RNEASY® Plus columns per manufacturer instructions, then reverse-transcribed to cDNA using […]® III Reverse Transcriptase (200 U/μL, Invitrogen) per supplier protocol. qPCR experiments were either performed with TAQMAN® gene expression master mix (Invitrogen) on a StepOne™ qPCR instrument or with […]® SYBR® Green SuperMix (Quanta Biosciences) on CFX Connect™ Real-Time PCR Detection System (BioRad), with fold-change quantified by ΔΔCt. For animal samples, 100 mg tissue was homogenized in 1 mL acid-guanidinium-phenol based reagent sold under the tradename TRIZOL® (Ambion), mixed vigorously in chloroform, and separated by centrifugation. Aqueous layer containing RNA was added to Qiagen RNEASY® Plus column; remaining stops were as described above for cell lysates.

PPARβ/δ = biological target: T1, PPARβ/δ (Homo sapiens, UniProt Q03181); test: PPARβ/δ NHR screen, antagonist mode; details: cell-based β-gal reporter assay, 10 μM
T1 sequence (Q03181 1-441): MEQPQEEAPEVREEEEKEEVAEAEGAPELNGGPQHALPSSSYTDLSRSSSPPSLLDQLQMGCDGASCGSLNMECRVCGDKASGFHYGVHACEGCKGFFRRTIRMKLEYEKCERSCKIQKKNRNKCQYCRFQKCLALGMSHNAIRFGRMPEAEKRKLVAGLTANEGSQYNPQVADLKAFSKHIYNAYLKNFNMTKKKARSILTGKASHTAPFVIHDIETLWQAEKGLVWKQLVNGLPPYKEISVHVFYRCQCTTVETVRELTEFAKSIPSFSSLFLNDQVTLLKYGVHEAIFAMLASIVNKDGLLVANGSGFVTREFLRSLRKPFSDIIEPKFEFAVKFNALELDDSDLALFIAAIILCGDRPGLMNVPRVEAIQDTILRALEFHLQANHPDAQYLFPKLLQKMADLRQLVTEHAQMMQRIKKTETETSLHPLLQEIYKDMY
Method: (§2) Receptor Binding Assays. Nuclear hormone (NHR) assays were performed by DiscoverX (Fremont, CA) on their NHR-Scan platform of cell-based protein-protein interaction assays. This platform uses a […] reporter that activates upon interaction of full-length receptor protein with steroid coactivator receptor peptides. In agonist mode, activity of CL2-57 at 10 μM was compared to maximal activity of published positive control agonists; in antagonist mode, reduction in activity with 10 μM CL2-57 from that observed at […] of published agonists was quantified.

ABCA1 protein = ABCA1 protein - HepG2 (immunoblot); type: cell-based; details: HepG2 hepatocarcinoma cells
Method: In vitro Immunoblot. Cells were lysed with RIPA buffer (Sigma) containing protease/phosphatase inhibitors (Cocktails II and III, respectively, EMD Millipore). Protein was quantified by BCA assay (Thermo Fisher Scientific). Denatured proteins were separated by gel electrophoresis (NuPage™ 4-12% Bis-Tris, Invitrogen) in MOPS running buffer at 120 V for 1 hour. Proteins were transferred to PDVF membranes (iBlot2). Membrane was blocked in 5% skim milk for 1 hour, incubated with primary antibody at 4° C. overnight, washed with TBST, and then incubated with HRP-linked secondary antibody (Cell Signaling Technology) for 1 hour at room temperature. After TBST wash, membrane was imaged using SUPERSIGNAL® West Femto™ substrate (Thermo Fisher Scientific) on Azure Biosystems c400 imager. Antibodies used: Abcam ab18180 (ABCA1, RRID:AB 444302), Thermo Fisher MA5-11685 (SREBP1, RRID:AB_10984077), Invitrogen MA5-15738 (GAPDH, RRID:AB_10977387).

LXRα = biological target: T2, LXRα (Homo sapiens, UniProt Q13133); test: LXRα NHR screen (DiscoverX NHR-Scan, β-gal reporter); type: cell-based
T2 sequence (Q13133 1-447): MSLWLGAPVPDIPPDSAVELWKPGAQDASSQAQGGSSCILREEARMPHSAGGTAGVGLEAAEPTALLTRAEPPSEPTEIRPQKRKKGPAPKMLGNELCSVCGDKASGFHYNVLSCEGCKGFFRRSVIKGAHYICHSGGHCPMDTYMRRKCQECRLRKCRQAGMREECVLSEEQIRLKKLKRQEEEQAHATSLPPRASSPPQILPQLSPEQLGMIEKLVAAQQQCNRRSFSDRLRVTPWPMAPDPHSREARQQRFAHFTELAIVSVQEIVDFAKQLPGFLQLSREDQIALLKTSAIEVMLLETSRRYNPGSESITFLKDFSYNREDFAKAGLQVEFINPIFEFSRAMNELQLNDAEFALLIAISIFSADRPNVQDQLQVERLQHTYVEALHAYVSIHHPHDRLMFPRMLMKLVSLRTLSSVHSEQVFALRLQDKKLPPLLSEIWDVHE
Method: as §2

ABCA1 [3] = test: ABCA1-linked luciferase assay in HepG2 cells; type: cell-based
Method: Luciferase. HepG2 cells (RRID:CVCL 0027) purchased from ATCC and used without further validation were stably transfected with pGreenFire1-LXRE-in-ABCA1 plasmid, which contains the ABCA1 promoter sequence linked to a luciferase response element, then selected over multiple generations with puromycin and frozen in liquid N2. For assays, transfected cells were plated 24 hours in medium (Gibco) containing charcoal-stripped serum (Gemini), followed by a 24-hour treatment. Cells were lysed with passive lysis buffer (Promega), frozen at −80° C. for 15 minutes, and shaken at room temperature for 2 hours before quantification with luciferase assay system (Promega) on a Synergy Neo2 plate reader.

ABCA1 mRNA = ABCA1 mRNA - J774 (qRT-PCR); type: cell-based, mouse
Source text: as §1

J774 cells [4] = test: BODIPY-cholesterol efflux from J774 macrophages to apoA1; type: cell-based
Method: Cholesterol Efflux. Plated J774 cells (RRID:CVCL 0358) purchased from ATCC and used without further validation were incubated in serum-free medium containing 0.5 μM BODIPY-cholesterol (Cayman) for 24 hours. Medium was replaced with fresh serum-free medium containing test compound for 24 hours. For experiments with probucol (Sigma), it was added at 20 μM for the final 2 hours with test compound. Then, fresh serum-free medium containing 20 μg/mL purified recombinant apolipoprotein A1 (Sigma) was added for 6 hours. Acceptor-containing medium was transferred to a new plate, while cells were lysed with RIPA buffer. Fluorescence (Ex480/Em530) was measured in both components, with data reported as % efflux=(medium fluorescence)/(medium fluorescence+lysate fluorescence) normalized to background efflux (% efflux in DMSO-treated cells without exogenous apoA1).

EC50 (ABCA1 [1]): 817 nM
Functional mode at PPARβ/δ (PPARβ/δ): weak antagonist
LXRα NHR screen, activity of CL2-57 (10 μM) as % of T0901317 (1 μM) (LXRα): 34%
EC50 (ABCA1 [3]; Homo sapiens, HepG2 liver cells, read-out: EC50, ABCA1-linked luciferase activity): 1800 nM
SMILES: CCOC(=O)c1cccc(NC(=O)c2sc(Cl)cc2S(=O)(=O)N(C)c2ccc(OCC)c(OCC)c2)c1 [CL2-57, ethyl 3-(5-chloro-3-(N-(3,4-diethoxyphenyl)-N-methylsulfamoyl)thiophene-2-carboxamido) benzoate]
LPS-induced increase of NOS2 (J774 cells [2]): dose-dependently reversed
LPS-induced increase of TNFα (J774 cells [2]): dose-dependently reversed
ABCA1 protein (ABCA1 protein): Increased
ABCA1 luciferase, activity of CL2-57 (10 μM) as % of T0901317 (1 μM) (ABCA1 [3]; 10 μM): 127%
Emax, ABCA1-linked luciferase activity (ABCA1 [3]; HepG2 liver cells): 250 % of vehicle
ABCA1-linked luminescence with CL2-57 titration (ABCA1 [3]; in the presence of RXR agonist bexarotene, increased from 2.5-fold): 4.5 fold
ABCA1-linked luminescence with CL2-57 titration (ABCA1 [3]; in the presence of pan-LXR agonist T0901317): no increase
ABCA1 mRNA - J774, activity of CL2-57 (10 μM) as % of T0901317 (1 μM) (ABCA1 mRNA; 10 μM): 90%
ABCA1 mRNA (ABCA1 mRNA; J774 macrophage cells): Increased
Cholesterol Efflux - J774, activity of CL2-57 (10 μM) as % of T0901317 (1 μM) (J774 cells [4]; 10 μM): 183%
Cholesterol efflux from macrophages to apoA1 (J774 cells [4]; fluorescent BODIPY-tagged cholesterol): dose-dependently increased
Increased cholesterol efflux with ABCA1 inhibitor probucol (J774 cells [4]; probucol 20 μM for the final 2 hours): blocked
